The assay concerns Aβ42. Kind of assay: Quantification of Aβ peptide in culture of neurons from rat fetus brain (Aβ ELISA). Format: cell-based. The following applies: Primary cortical neuron, 72 h, IC50 for decrease in the Aβ42 concentration in the medium, three days after addition of the compound, read-out: Aβ42 production reducing effect. How it is done: Quantification of Aβ Peptide in Culture of Neurons from Rat Fetus Brain
(1) Rat Primary Neuronal Culture
Primary neuronal cultures were prepared from the cerebral cortex of embryonic day 18 Wistar rats (Charles River Japan, Yokohama, Japan). Specifically, the embryos were aseptically removed from pregnant rats under ether anesthesia. The brain was isolated from the embryo and immersed in an ice-cold L-15 medium (such as Invitrogen Corp. Cat #11415-064, Carlsbad, Calif., USA, or SIGMA L1518). The cerebral cortex was collected from the isolated brain under a stereoscopic microscope. The cerebral cortex fragments collected were enzymatically treated in an enzyme solution containing 0.25% trypsin (Invitrogen Corp. Cat #15050-065, Carlsbad, Calif., USA) and 0.01% DNase (Sigma D5025, St. Louis, Mo., USA) at 37° C. for 30 minutes to disperse the cells. Here, the enzymatic reaction was stopped by adding inactivated horse serum to the solution. The enzymatically treated solution was centrifuged at 1,500 rpm for five minutes to remove the supernatant. 5 to 10 ml of a medium was added to the resulting cell mass. Neurobasal medium (Invitrogen Corp. Cat #21103-049, Carlsbad, Calif., USA) supplemented with 2% B27 supplement (Invitrogen Corp. Cat #17504-044, Carlsbad, Calif., USA), 25 μM 2-mercaptoethanol (2-ME, WAKO Cat #139-06861, Osaka, Japan), 0.5 mM L-glutamine (Invitrogen Corp. Cat #25030-081, Carlsbad, Calif., USA), and Antibiotics-Antimycotics (Invitrogen Corp. Cat #15240-062, Carlsbad, Calif., USA) was used as the medium (Neurobasal/B27/2-ME). However, the above Neurobasal medium not supplemented with 2-ME (Neurobasal/B27) was used for the assay. The cells were redispersed by mild pipetting of the cell mass to which the medium was added. The cell dispersion was filtered through a 40-μm nylon mesh (Cell Strainer, Cat #35-2340, Becton Dickinson Labware, Franklin Lakes, N.J., USA) to remove the remaining cell mass, and thus a neuronal cell suspension was obtained. The neuronal cell suspension was diluted with the medium and then plated in a volume of 100 μl/well at an initial cell density of 5×10^5 cells/cm^2 in a 96-well polystyrene culture plate pre-coated with poly-L or D-lysine (Falcon Cat #35-3075, Becton Dickinson Labware, Franklin Lakes, N.J., USA coated with poly-L-lysine using the method shown below, or BIOCOAT™ cell environments Poly-D-lysine cell ware 96-well plate, Cat #35-6461, Becton Dickinson Labware, Franklin Lakes, N.J., USA). Poly-L-lysine coating was carried out as follows. 100 μg/ml of a poly-L-lysine (SIGMA P2636, St. Louis, Mo., USA) solution was aseptically prepared with a 0.15 M borate buffer (pH 8.5). […] of the solution was added to the 96-well polystyrene culture plate and incubated at room temperature for one or more hours or at 4° C. overnight or longer. Thereafter, the coated 96-well polystyrene culture plate was washed with sterile water four or more times, and then dried or rinsed with, for example, sterile PBS or medium, and used for cell plating. The plated cells were cultured in the incubator at 37° C. in 5% CO2-95% air for one day. Then, the total amount of the medium was replaced with a fresh Neurobasal/B27/2-ME medium, and then the cells were cultured for further three days.
The drug was added to the culture plate on Day 4 of culture as follows. The total amount of the medium was removed from the wells, and 180 μl/well of Neurobasal medium not containing 2-ME and containing 2% B-27 (Neurobasal/B27) was added thereto. […]
A general note: ELISA stands for enzyme-linked immunosorbent assay.

Take `N#Cc1ccc(C(=O)Nc2ccc3c(c2)C2(CCO3)CCSC(N)=N2)nc1` (stereo not drawn) [Compound 11, (−)—N-(2′-amino-2,3,5′,6′-tetrahydrospiro[chromene-4,4′-[1,3]thiazin]-6-yl)-5-cyanopyridine-2-carboxamide]: the IC50 came to 53 nM.
As for `NC1=NC2(CCOc3ccc(NC(=O)c4ccc(C(F)(F)F)cn4)cc32)CCS1` (centres unmarked) [Compound 12, N-(2′-amino-2,3,5′,6′-tetrahydrospiro[chromene-4,4′-[1,3]thiazin]-6-yl)-5-trifluoromethylpyridine-2-carboxamide], the figure is 71 nM; as for `NC1=NC2(CCOc3ccc(NC(=O)c4ncc(Br)cn4)cc32)CCS1` (centres unmarked) [Compound 15, N-(2′-amino-2,3,5′,6′-tetrahydrospiro[chromene-4,4′-[1,3]thiazin]-6-yl)-5-bromopyrimidine-2-carboxamide], 63 nM; as for `NC1=NC2(CCOc3ccc(NC(=O)c4ccc(Br)cn4)cc32)CCS1` (centres unmarked) [Compound 16, N-(2′-amino-2,3,5′,6′-tetrahydrospiro[chromene-4,4′-[1,3]thiazin]-6-yl)-5-bromopyridine-2-carboxamide], 27 nM.
As for `NC1=NC2(CCOc3ccc(NC(=O)c4ncc(Cl)cc4Cl)cc32)CCS1` (centres unmarked) [Compound 18, N-(2′-amino-2,3,5′,6′-tetrahydrospiro[chromene-4,4′-[1,3]thiazin]-6-yl)-3,5-dichloropyridine-2-carboxamide], the figure is 47 nM.

(Values after patent publication US8501733B2, “Spiroaminodihydrothiazine derivatives” (Eisai R&D Management Co., Ltd., priority 2008, dated 2013).)
